Measurements as given in ChEMBL document CHEMBL1121921, “Synthesis and evaluation of the male antifertility properties of a series of N-unsubstituted sulfamates” (1981).

What was measured:
Format in all cases: functional
Rattus norvegicus [1] = assay: Compound was evaluated for male antifertility activity by oral administration in propylene glycol to male Sprague-Dawley rats for 14 consecutive days at dose of 0.40 mmol/kg
Rattus norvegicus [2] = assay: Compound was evaluated for male antifertility activity by oral administration in propylene glycol to male Sprague-Dawley rats for 14 consecutive days at dose of 0.36 mmol/kg
Rattus norvegicus [3] = assay: Compound was evaluated for male antifertility activity by oral administration in propylene glycol to male Sprague-Dawley rats for 14 consecutive days at dose of 0.43 mmol/kg
Rattus norvegicus [4] = assay: Compound was evaluated for male antifertility activity by oral administration in propylene glycol to male Sprague-Dawley rats for 14 consecutive days at dose of 0.64 mmol/kg
Rattus norvegicus [5] = assay: Compound was evaluated for male antifertility activity by oral administration in propylene glycol to male Sprague-Dawley rats for 14 consecutive days at dose of 0.30 mmol/kg
Rattus norvegicus [6] = assay: Compound was evaluated for male antifertility activity by oral administration in propylene glycol to male Sprague-Dawley rats for 14 consecutive days at dose of 0.18 mmol/kg
Rattus norvegicus [7] = assay: Compound was evaluated for male antifertility activity by oral administration in propylene glycol to male Sprague-Dawley rats for 14 consecutive days at dose of 0.68 mmol/kg
Rattus norvegicus [8] = assay: Compound was evaluated for male antifertility activity by oral administration in propylene glycol to male Sprague-Dawley rats for 14 consecutive days at dose of 0.04 mmol/kg
Rattus norvegicus [9] = assay: Compound was evaluated for male antifertility activity by oral administration in propylene glycol to male Sprague-Dawley rats for 14 consecutive days at dose of 0.34 mmol/kg
Rattus norvegicus [10] = assay: Compound was evaluated for male antifertility activity by oral administration in propylene glycol to male Sprague-Dawley rats for 14 consecutive days at dose of 0.05 mmol/kg
Rattus norvegicus [11] = assay: Compound was evaluated for male antifertility activity by oral administration in propylene glycol to male Sprague-Dawley rats for 14 consecutive days at dose of 0.07 mmol/kg
Rattus norvegicus [12] = assay: Compound was evaluated for male antifertility activity by oral administration in propylene glycol to male Sprague-Dawley rats for 14 consecutive days at dose of 0.09 mmol/kg

Which No. of implants/pregnancy (Rattus norvegicus [1]) does the source give for `CC(OS(N)(=O)=O)C(C)OS(N)(=O)=O` (stereo not drawn) here?
Its No. of implants/pregnancy is 15.

And the “No. of males cohabited” value (Rattus norvegicus [1])?
The value was 4.

What about the “No. of males fertile” value (Rattus norvegicus [1]) of the same compound?
The value was 3.

And the “No. of males mated” value (Rattus norvegicus [1])?
The value was 3.

And the Resorbing implants (Rattus norvegicus [1])?
The Resorbing implants was 0%.

What does the source list for `NS(=O)(=O)OC1CCCCC1OS(N)(=O)=O` (stereo not drawn)?
No. of implants/pregnancy (Rattus norvegicus [2]): 14; No. of males cohabited (Rattus norvegicus [2]): 5; No. of males fertile (Rattus norvegicus [2]): 5; No. of males mated (Rattus norvegicus [2]): 5; Resorbing implants (Rattus norvegicus [2]): 4.4%

Which results are given for `NS(=O)(=O)OCCCOS(N)(=O)=O`?
No. of implants/pregnancy (Rattus norvegicus [3]): 9.3; No. of males cohabited (Rattus norvegicus [3]): 5; No. of males fertile (Rattus norvegicus [3]): 4; No. of males mated (Rattus norvegicus [3]): 5; Resorbing implants (Rattus norvegicus [3]): 73.6%; No. of implants/pregnancy (Rattus norvegicus [4]): 6.7; No. of males cohabited (Rattus norvegicus [4]): 5; No. of males mated (Rattus norvegicus [4]): 5; Resorbing implants (Rattus norvegicus [4]): 94.4%

`NS(=O)(=O)OCCCCCCCCCCOS(N)(=O)=O` was tested. Which No. of implants/pregnancy (Rattus norvegicus [5]) did it give?
The No. of implants/pregnancy was 12.5.

What about the “No. of males cohabited” value (Rattus norvegicus [5]) of the same compound?
The value was 5.

What about the “No. of males fertile” value (Rattus norvegicus [5]) of the same compound?
Its value is 4.

What about the “No. of males mated” value (Rattus norvegicus [5]) of the same compound?
Its value is 5.

What about the Resorbing implants (Rattus norvegicus [5]) of the same compound?
The Resorbing implants was 17.3%.

For `NS(=O)(=O)OCCOS(N)(=O)=O`, which No. of implants/pregnancy (Rattus norvegicus [6]) is on record?
Its No. of implants/pregnancy is 10.8.

What about the “No. of males cohabited” value (Rattus norvegicus [6]) of the same compound?
Its value is 10.

What about the “No. of males fertile” value (Rattus norvegicus [6]) of the same compound?
Its value is 8.

And the “No. of males mated” value (Rattus norvegicus [6])?
The value was 9.

And the Resorbing implants (Rattus norvegicus [6])?
The Resorbing implants was 40%.

What about the No. of implants/pregnancy (Rattus norvegicus [2]) of the same compound?
Its No. of implants/pregnancy is 9.8.

And the “No. of males cohabited” value (Rattus norvegicus [2])?
Its value is 8.

What about the “No. of males fertile” value (Rattus norvegicus [2]) of the same compound?
Its value is 1.

What about the “No. of males mated” value (Rattus norvegicus [2]) of the same compound?
Its value is 7.

What about the Resorbing implants (Rattus norvegicus [2]) of the same compound?
The Resorbing implants was 98.2%.

And the “No. of males cohabited” value (Rattus norvegicus [7])?
Its value is 5.

And the “No. of males fertile” value (Rattus norvegicus [7])?
The value was 0.

And the “No. of males mated” value (Rattus norvegicus [7])?
Its value is 5.

Which No. of implants/pregnancy (Rattus norvegicus [8]) does the source give for `NS(=O)(=O)OCCCCOS(N)(=O)=O` here?
The No. of implants/pregnancy was 10.2.

And the “No. of males cohabited” value (Rattus norvegicus [8])?
Its value is 5.

And the “No. of males fertile” value (Rattus norvegicus [8])?
The value was 5.

And the “No. of males mated” value (Rattus norvegicus [8])?
Its value is 5.

What about the Resorbing implants (Rattus norvegicus [8]) of the same compound?
Its Resorbing implants is 56%.

And the “No. of males cohabited” value (Rattus norvegicus [1])?
Its value is 5.

And the “No. of males fertile” value (Rattus norvegicus [1])?
The value was 0.

What about the “No. of males mated” value (Rattus norvegicus [1]) of the same compound?
Its value is 5.

Which results are given for `CCCC(C)(COS(N)(=O)=O)COS(N)(=O)=O`?
No. of implants/pregnancy (Rattus norvegicus [9]): 15.5; No. of males cohabited (Rattus norvegicus [9]): 4; No. of males fertile (Rattus norvegicus [9]): 4; No. of males mated (Rattus norvegicus [9]): 4; Resorbing implants (Rattus norvegicus [9]): 12.5%

For `CS(=O)(=O)OCCOS(C)(=O)=O` [ETHANE DIMETHANE SULFONATE], which No. of implants/pregnancy (Rattus norvegicus [10]) is on record?
The No. of implants/pregnancy was 9.9.

What about the “No. of males cohabited” value (Rattus norvegicus [10]) of the same compound?
Its value is 7.

What about the “No. of males fertile” value (Rattus norvegicus [10]) of the same compound?
Its value is 6.

What about the “No. of males mated” value (Rattus norvegicus [10]) of the same compound?
The value was 7.

What about the Resorbing implants (Rattus norvegicus [10]) of the same compound?
The Resorbing implants was 35.2%.

And the No. of implants/pregnancy (Rattus norvegicus [11])?
Its No. of implants/pregnancy is 12.3.

What about the “No. of males cohabited” value (Rattus norvegicus [11]) of the same compound?
The value was 5.

What about the “No. of males fertile” value (Rattus norvegicus [11]) of the same compound?
Its value is 3.

What about the “No. of males mated” value (Rattus norvegicus [11]) of the same compound?
Its value is 4.

What about the Resorbing implants (Rattus norvegicus [11]) of the same compound?
Its Resorbing implants is 30.3%.

And the “No. of males cohabited” value (Rattus norvegicus [12])?
The value was 5.

And the “No. of males fertile” value (Rattus norvegicus [12])?
The value was 0.

And the “No. of males mated” value (Rattus norvegicus [12])?
The value was 4.
